According to patent publication US8383672B2, “Halogenated rhodamine derivatives and applications thereof” (Kiadis Pharma Canada Inc., priority 2001, dated 2013):
“Also recorded” adds a separate entry of the source.

What was measured:
S. typhimurium = experiment: Bacteriostatic activity of rhodamine derivatives against S. typhimurium (photodynamic treatment, CFU/mL); type: cell-based, Salmonella typhimurium; conditions: 50 μM; for antibacterial activity against S. typhimurium: 514 nm light 180 minutes, 30 Joules/cm^2; for log decrease of bacterial growth: S. typhimurium, without extrusion time
Procedure: (§1) The protocol used for the bacteriosidic inactivation was performed as described in Brasseur and coll. with few modifications for bacteriosidic potential assessment (Brasseur et al, 2000).
(§2) Bacterial was grown overnight in Lubria Broth medium (LB), 100 μl (≈×10^7 bacteria) of each bacterial suspension was added to 4 ml of LB medium, a small aliquot of the bacterial suspension was taken out for bacterial titer prior to treatment expressed as CFU/mL. To the bacterial suspension was added the rhodamines derivatives, each derivative being tested in duplicate at a concentration of 50 μM. Each mixture of bacteria rhodamine derivative was incubated at 37° C. for 40 minutes. The bacteria-rhodamine suspensions were then treated and exposed to a 514 nm wavelength light for 180 minutes, for a total output energy of 30 Joules/cm^2. Following the treatment time, the bacteria-rhodamine suspensions were centrifuged at 3000 g, resuspended in 4 ml and serial dilutions were performed for each duplicate. 10 μL of the diluted bacterial suspensions were plated, the plates incubated overnight at 37° C. The bacteriostatic effect is expressed by the number of CFU/mL.

S. epidermitis = experiment: Bacteriostatic activity of rhodamine derivatives against Staphilococcus epidermitis (photodynamic treatment, CFU/mL); type: cell-based; conditions: for decrease of bacterial growth (bacteriostatic effect): without extrusion time
Procedure: Staphilococcus epidermitis
as §1
as §2, with “(≈1×10^7” for “(≈×10^7”, “To the bacterial suspension was added the rhodamines derivatives, each derivative being tested in duplicate at a concentration of 50 μM.” left out
The protocol used for the bacteriosidic inactivation was performed as described in Brasseur and coll. without modification for bacteriosidic potential assessment (Brasseur et al, 2000).
Bacterial was grown overnight in Lubria Broth medium (LB), 100 μl (≈1×10^7 bacteria) of each bacterial suspension added to 4 ml of LB medium. A small aliquot of the bacterial suspension was taken out for bacterial titer prior to treatment. […] Each mixture of bacteria rhodamine derivative was incubated at 37° C. for 40 minutes. The bacterial suspensions were then centrifuged at 3000 g for 10 minutes, resuspended in 4 mL LB media and incubated for 90 minutes at 37° C. to allow extrusion of the derivatives. The bacteria rhodamines suspensions were then treated and exposed to a 514 nm wavelength light for 180 minutes, for a total output energy of 30 Joules/cm^2. Following the treatment time, serial dilutions were performed for each duplicate and 10 μL of the diluted bacterial suspension was plated, the plates incubated overnight at 37° C. The bacteriostatic effect is expressed by the number of colony forming units/mL.

Cytomegalovirus [1] = experiment: Antiviral assay against Cytomegalovirus in FS cells, with PDT treatment; type: cell-based, CMV (AD169); conditions: 50 uM, followed by PDT treatment (180 minutes, 30 Joules/cm^2)
Procedure: The antiviral assay was performed as described in Lin, L (2001). Human diploid fibroblast, foreskin cells (FS), were used in this assay. […].
(§3) FS cells were grown to confluency in shell vials. At the time of infection 2.5-3.5×10^5 cells were growing on each coverslip. The CMV (AD169) stock solution containing 1 mL of virus were quickly thawed, seeded and diluted following 100 fold dilutions in MEM (Earle's salt) supplemented with L-glutamine and 2% FBS, total volume 30 ml.
(§4) The titer of the virus have been determined at 10^−2 (10^4 TCID50) plaque forming units (pfu) in 0.2 ml. Therefore 1 mL used in the PDT experiments represents […]. A M. O. I. of 0.4-0.5 of CMV was used throughout this experiment.
(§5) The plates containing no rhodamines derivatives were treated with light in parallel to the non-light treated plates. The concentration used throughout the assay for the rhodamines derivatives was maintained at 50 uM. Following the addition of the derivatives to the viral stock solution, the plates were placed into the Theralux L6.30 device and illuminated for 180 minutes with 210 rpm agitation. The energy output was measured to be 30 Joules/cm^2. The non-PDT plate was placed into a 37° C. incubator for the same amount of time. Following this treatment time, dilutions were made and inoculated with the FS cells under centrifugation (2000 g, 60 minutes). Following the centrifugation, the cells are incubated 60 minutes at 37° C., 5% CO2, then are washed with the culture media and incubated for 18-24 hours at 37° C. at 5% CO2. Inoculation volume of each dilution was 0.2 ml, the dilutions made were 10^−3 to 10^−5 in duplicate.
The cells were fixed, removed from the vials and stained with labelled FITC (fluorescein isothiocyanate) Mab to CMV immediate early antigen.
CMV viral particles were counted. One fluorescent virus particle (kidney-shaped) represents one plaque forming unit.

E. coli = experiment: Bacteriostatic activity of rhodamine derivatives against E. coli (photodynamic treatment, CFU/mL); conditions: for antibacterial activity against E. coli: 50 μM, 514 nm light 180 minutes, 30 Joules/cm^2; for log decrease of bacterial growth: E. coli, 50 uM, without extrusion time
P. aeruginosa = experiment: Bacteriostatic activity of rhodamine derivatives against P. aeruginosa (photodynamic treatment, CFU/mL); type: cell-based, Pseudomonas aeruginosa; conditions: 50 μM
Procedure: as §1
as §2, with “(≈1×10^7” for “(≈×10^7”

Cytomegalovirus [2] = experiment: Antiviral assay against Cytomegalovirus in FS cells, without PDT treatment; type: cell-based, CMV (AD169); conditions: 50 uM
Procedure: The antiviral assay was performed as described in Lin, L (2001). Human diploid fibroblast, foreskin cells (FS), were used in this assay.
as §3, §4
as §5, with “solution,” for “solution, the plates were placed into the Theralux L6.30 device and illuminated for 180 minutes with 210 rpm agitation. The energy output was measured to be 30 Joules/cm^2. The non-PDT plate was placed into a 37° C. incubator for the same amount of time. Following this treatment time,”, “duplicate. […]” for “duplicate.”
CMV viral particles were counted. […]

[3] = 50 μM, 514 nm light 180 minutes, 30 Joules/cm^2

Compound | antibacterial activity against S. typhimurium (S. typhimurium) | log decrease of bacterial growth (S. typhimurium) [logs] | antibacterial activity (section Staphilococcus epidermitis) (S. epidermitis; [3]) | decrease of bacterial growth (bacteriostatic effect) (S. epidermitis; S. epidermitis, 50 μM) | antiviral activity against Cytomegalovirus (Cytomegalovirus [1]) | antibacterial activity against E. coli (E. coli) | log decrease of bacterial growth (E. coli) | antibacterial activity against P. aeruginosa (P. aeruginosa; 514 nm light 180 minutes, 30 Joules/cm^2) | log decrease of bacterial growth (P. aeruginosa; P. aeruginosa, without extrusion time) [logs] | antiviral activity against Cytomegalovirus (infectivity) (Cytomegalovirus [2]; hydrochloride) | antibacterial activity against S. epidermitis (S. epidermitis; 10 μM, 514 nm light 180 minutes, 30 Joules/cm^2) | decrease of bacterial growth (bacteriostatic effect) (S. epidermitis; S. epidermitis, 10 μM) | antibacterial activity against S. epidermitis (S. epidermitis; 50 μM, extrusion time of 90 minutes prior to radiation treatment) | effect on bacterial growth (S. epidermitis; S. epidermitis, 50 μM, with 90 minutes extrusion time) | antiviral activity against Cytomegalovirus (infectivity) (Cytomegalovirus [2])
acetate salt of 2,7-dibromorhodamine B methyl ester [HA-X-164] | showed antibacterial activity | 0.3 | showed antibacterial activity | 3 logs | possess antiviral activity | showed antibacterial activity | 0.25 logs | – | – | – | – | – | – | – | –
COC(=O)c1ccccc1-c1c2ccc(=N)c(Br)c-2oc2c(Br)c(N)ccc12.Cl [TH9402, 4,5-dibromorhodamine 123 (2-(4,5-dibromo-6-amino-3-imino-3H-xanthen-9-yl)-benzoic acid methyl ester hydrochloride), reference compound] | showed antibacterial activity | 6.7 | showed antibacterial activity | inhibits bacterial growth | – | showed antibacterial activity | 7 logs | showed antibacterial activity | 2 | inhibit cytometalovirus infectivity; also recorded: did not need PDT treatment to possess antiviral activity | – | – | – | – | –
CCN=c1c(C)cc2c(-c3ccccc3C(=O)OCC)c3cc(C)c(NCC)c(Br)c3oc-2c1Br [HA-X-171, 4,5-dibromorhodamine 6G] | – | – | – | – | possess antiviral activity | showed antibacterial activity | 3.7 logs | – | – | – | showed antibacterial activity | 6,5 logs | – | – | –
acetate salt of 2,7-dibromorhodamine B hexyl ester [HA-X-149] | – | – | showed antibacterial activity | 4,5 logs | possess antiviral activity | – | – | – | – | – | – | – | – | – | –
COC(=O)c1cc(Cl)c(Cl)cc1-c1c2ccc(=[N+](C)C)cc-2oc2cc(N(C)C)ccc12.[Cl-] [HA-X-40, 2′-(6-dimethylamino-3-dimethylimino-3H-xanthen-9-yl) 4′,5′-dichloro-benzoic acid methyl ester hydrochloride] | – | – | showed antibacterial activity | 2 logs | possess antiviral activity | – | – | – | – | – | – | – | showed antibacterial activity | eradicates bacterial growth | –
COCCOCCOC(=O)c1ccccc1-c1c2ccc(=N)c(Br)c-2oc2c(Br)c(N)ccc12 [HA-X-44, 4,5-dibromorhodamine 110 2-(2-methoxyethoxy)ethyl esther] | showed antibacterial activity | 5 | showed antibacterial activity | eradicates bacterial growth | – | showed antibacterial activity | eradication | – | – | – | – | – | – | – | inhibit cytometalovirus infectivity; also recorded: did not need PDT treatment to possess antiviral activity
CCN(CC)c1ccc2c(-c3ccccc3C(=O)OCCCBr)c3ccc(=[N+](CC)CC)cc-3oc2c1 [HA-VIII-92, rhodamine B 3-bromopropyl ester] | – | – | – | – | possess antiviral activity | – | – | – | – | – | – | – | – | – | –
